# Measurements from patent US10842772B1, “Cannabis-based bioactive formulations and methods for use thereof” (priority 2016, dated 2020).
# Where a name gives a salt, the structure may show the parent alone.
# Assays:
# CB1 and CB2 receptors = conditions: cited from earlier work
# GPR55 = GPR55 (Homo sapiens, UniProt Q9Y2T6); conditions: putative new cannabinoid receptor; cited from earlier work
# 5-HT1A receptor = target: T1, 5-HT1A receptor (Homo sapiens, UniProt P08908); conditions: cited from earlier work
# T1 sequence (P08908 1-422): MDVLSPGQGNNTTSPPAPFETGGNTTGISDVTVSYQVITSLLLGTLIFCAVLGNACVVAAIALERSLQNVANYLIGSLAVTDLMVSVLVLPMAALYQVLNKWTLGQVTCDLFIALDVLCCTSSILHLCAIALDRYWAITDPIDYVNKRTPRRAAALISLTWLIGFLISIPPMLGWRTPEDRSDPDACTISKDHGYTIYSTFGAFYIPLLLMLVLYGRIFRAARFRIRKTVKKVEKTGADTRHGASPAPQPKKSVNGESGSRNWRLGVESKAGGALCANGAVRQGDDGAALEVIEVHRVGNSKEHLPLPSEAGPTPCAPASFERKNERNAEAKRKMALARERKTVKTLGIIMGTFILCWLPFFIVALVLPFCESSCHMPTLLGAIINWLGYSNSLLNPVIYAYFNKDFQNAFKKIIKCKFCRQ
# [1] = system: Patient 1 (anxiety, depression, OCD, ADHD-related symptoms); test: Example 2: treatment of Patient 1 with THC (vaporized, then edible); assay type: in vivo, human
# Method: Following cessation of efficacy of Zoloft, Patient 1 obtained a prescription for medical marijuana. Patient 1 began by vaporizing marijuana buds and later vaporizing THC wax and oil concentrates.
# Patient 1 began consuming THC in edible form at doses ranging from 10-35 mg every 4-6 hours. Initially, Patient 1 consumed 10-20 mg for approximately 1-2 months, and then increased the dose to 30-35 mg. […] Patient 1 used orally consumed THC as a medicament for at least 9 months during which time they observed and recorded the changes in their mood, movements, cognition and behavior while practicing law working, raising children, and otherwise functioning in their daily life. […] Patient 1 continued to use the SSRI Zoloft during approximately the first 2 months of this 9-month period, but thereafter discontinued the use of Zoloft.
# Patient 1 reports that symptom relief seems tied to THC's slowing of their perception of time, which results in cascading (positive) effects on their mood, movements, cognition and behavior.
# [2] = system: patients experiencing ADHD-related symptoms or ASD-related symptoms; test: Example 3: group study, THC versus placebo; assay type: in vivo, human; conditions: THC or Marinol versus placebo; re-evaluation after 2-3 weeks adjustment
# Method: In patients experiencing ADHD-related symptoms or ASD-related symptoms, obtain baseline measures (using, reports, observations or tests described above) of the symptoms and deficits commonly associated with the conditions. Administer THC, or a synthetic substitute such as Marinol® at a specific dose, to half of the group and administer a placebo to the remainder of the participants. The group that is administered THC should be allowed at least 2-3 weeks to acclimate to THC. After the several week adjustment period, all patients should be re-evaluated using the same or similar tests, observations and reports upon which initial measures of symptoms and deficits were made.
# CB2 receptor = CB2 receptor (Homo sapiens, UniProt P34972); conditions: cited from earlier work
# CB2 receptor, sequence (P34972 whole entry): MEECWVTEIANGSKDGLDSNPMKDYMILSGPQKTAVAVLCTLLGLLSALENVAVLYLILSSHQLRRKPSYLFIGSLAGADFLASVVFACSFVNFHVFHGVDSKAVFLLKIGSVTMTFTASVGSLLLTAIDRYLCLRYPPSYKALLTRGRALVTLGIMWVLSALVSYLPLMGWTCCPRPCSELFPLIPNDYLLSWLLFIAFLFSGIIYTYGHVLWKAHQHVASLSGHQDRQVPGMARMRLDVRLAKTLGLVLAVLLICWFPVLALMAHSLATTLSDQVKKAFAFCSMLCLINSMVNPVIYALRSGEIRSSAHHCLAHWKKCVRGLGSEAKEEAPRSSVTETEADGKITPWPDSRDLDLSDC
# [3] = cited from earlier work
# [4] = system: Patient 1 (anxiety, depression, OCD, substance abuse, ADHD); test: Example 1: treatment of Patient 1 with Zoloft; assay type: in vivo, human
# Method: Patient 1 was also a regular user of alcohol and a recreational user of cocaine. Patient 1 was prescribed selective serotonin reuptake inhibitor (SSRI) Zoloft, at 25 mg with doses increasing up to 200 mg over the course of approximately 6-8 months. The dose of Zoloft/sertraline used was 25-200 mg.
# [5] = THC in edible form 10-35 mg every 4-6 hours
# GPR55, sequence (Q9Y2T6 whole entry, species assumed): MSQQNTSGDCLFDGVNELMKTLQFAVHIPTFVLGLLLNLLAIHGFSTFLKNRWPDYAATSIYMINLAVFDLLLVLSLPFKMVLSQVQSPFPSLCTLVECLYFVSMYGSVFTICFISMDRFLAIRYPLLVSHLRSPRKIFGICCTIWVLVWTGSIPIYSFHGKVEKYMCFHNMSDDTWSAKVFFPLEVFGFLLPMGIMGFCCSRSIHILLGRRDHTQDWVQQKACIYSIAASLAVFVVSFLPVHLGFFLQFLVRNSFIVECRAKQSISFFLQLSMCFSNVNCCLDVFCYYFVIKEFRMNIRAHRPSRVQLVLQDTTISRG
smiles,measurement,setting,value
"C=C(C)[C@@H]1CCC(C)=C[C@H]1c1c(O)cc(CCCCC)cc1O [CBD, cannabidiol]",affinity for CB1 and CB2 receptors,CB1 and CB2 receptors,little affinity
same,relative affinity for CB1 versus CB2 receptor,CB1 and CB2 receptors,greater affinity for the CB2 receptor
same,activity at GPR55,GPR55,antagonist
same,activity at 5-HT1A receptor,5-HT1A receptor,agonist
"CCCCCc1cc(O)c2c(c1)OC(C)(C)[C@@H]1CCC(C)=C[C@@H]21 [THC, (−)-(6aR,10aR)-6,6,9-trimethyl-3-pentyl-6a,7,8,10a-tetrahydro-6H-benzo[c] chromen-1-ol]",OCD and ADHD-related symptoms,[1]; [5],elimination
same,"ability to focus and concentrate on reading, writing, and interpersonal interactions",[1]; [5],increased ability to focus and concentrate
same,"anxiety, depression",[1]; [5],significant reduction
same,perception of time,[1]; [5],slowed perception of time
same,side effects,"[1]; edible THC, after initial adjustment period of approximately 2 weeks",No significant side effects
same,ability to read body language and facial expressions,[1]; orally-consumed THC,increase in their ability to read body language and facial expressions
same,alcohol and cocaine use,[1]; orally-consumed THC,rarely consumed alcohol and stopped using cocaine
same,"coordination and balance, fine motor skills",[1]; orally-consumed THC,improvements in coordination and balance
same,interpersonal relationships at home and in the workplace,[1]; orally-consumed THC,improvement in interpersonal relationships
same,propensity to interrupt while orally communicating,[1]; orally-consumed THC,reduced propensity to interrupt
same,sensitivity to peripheral noise and other distractions,[1]; orally-consumed THC,reduction in sensitivity
same,"visualizing images described in writings, sense of direction",[1]; orally-consumed THC,increased ability to visualize images described in writings and an improved sense of direction
same,symptoms and deficits associated with ASD and ADHD,[2],reduce or eliminate
same,relative affinity for CB1 versus CB2 receptor,CB1 and CB2 receptors,approximately equal affinity
same,activity at CB2 receptor,CB2 receptor,partial agonist
same,peak plasma time,[3]; Absorption,0.5 to 4 h
same,protein bound,[3]; Distribution,90-99%
same,excretion: feces,[3]; Elimination,50%
same,excretion: urine,[3]; Elimination,15%
same,"half-life, parent drug",[3]; Elimination,25 to 36 h
same,renal clearance,[3]; Elimination,18 to 20 mL/min
same,total body clearance,[3]; Elimination,3.3 mL/min/kg
same,Metabolism,[3]; in vivo,extensive first-pass hepatic metabolism
"CN[C@H]1CC[C@@H](c2ccc(Cl)c(Cl)c2)c2ccccc21 [Zoloft, sertraline HCl]","treating anxiety, depression, OCD, substance abuse and ADHD","[4]; 25 mg increasing up to 200 mg over 6-8 months, at initial dose and each incremental increase",initially effective
same,persistence of effects,"[4]; 25-200 mg, after dosage increases",effects wore off at varying intervals
